Data taken from US6617444B1, “Dinucleotide tetraphosphate crystals” (Yamasa Corporation, priority 1999, dated 2003).

Legend:
[1] = Hygroscopicity: standing at controlled temperature and relative humidity; format: physicochemical
Method: dCP4U.4Na crystals (decahydrate) having a water content of approximately 17.4% were allowed to stand for two days under the following conditions a), b) and c): a) 25° C. and a relative humidity of 57%; b) 25° C. and a relative humidity of 75%; c) 25° C. and a relative humidity of 93%. […] The crystals have proven to be stable and to have no hygroscopicity. In addition, the same crystals were allowed to stand for seven days under the following severe conditions d): d) 40° C. and a relative humidity of 75%.

[2] = Stability: acceleration test, sealed bottles stored at 60° C.; format: physicochemical; details: sealed bottle, 13 days at 60° C. (acceleration test)
Method: dCP4U.4Na crystals (decahydrate) and a freeze-dried product were individually placed in bottles, which were then sealed and stored for 13 days at 60° C. (acceleration test).

[3] = two days, 25° C., relative humidity 75%
[4] = two days, 25° C., relative humidity 93%

| Structure (SMILES) | change on standing under severe conditions ([1]; seven days, 40° C., relative humidity 75%) | decomposition or change in weight on standing (hygroscopicity) ([1]; two days, 25° C., relative humidity 57%) | decomposition or change in weight / state on standing (hygroscopicity) [1, 3] | decomposition or change in weight / state on standing (hygroscopicity) [1, 4] | decomposition on storage [2] | purity loss on storage [2] |
| --- | --- | --- | --- | --- | --- | --- |
| Nc1ccn([C@H]2CC(O)[C@@H](COP(=O)(O)OP(=O)(O)OP(=O)(O)OP(=O)(O)OC[C@H]3O[C@@H](n4ccc(=O)[nH]c4=O)C(O)C3O)O2)c(=O)n1 (stereo partly drawn) [dCP4U.4Na crystals (decahydrate), p^1-(2′-deoxycytidine 5′-)P^4-(uridine 5′-)tetraphosphate] | No change was observed | No decomposition or change in weight was observed | No decomposition or change in weight was observed | No decomposition or change in weight was observed | No decomposition |  |
| Nc1ccn([C@H]2CC(O)[C@@H](COP(=O)(O)OP(=O)(O)OP(=O)(O)OP(=O)(O)OC[C@H]3O[C@@H](n4ccc(=O)[nH]c4=O)C(O)C3O)O2)c(=O)n1 (stereo partly drawn) [freeze-dried product, p^1-(2′-deoxycytidine 5′-)P^4-(uridine 5′-)tetraphosphate, reference compound] |  |  | assumed a mud-like state due to gradual increase in water content | assumed a mud-like state due to gradual increase in water content | partially decomposed | approximately 2.2% |
